Active and inactive are the calls of the source. No cut-off for these calls is given here.
Assays:
[1] = target: Glutamate NMDA receptor (Rattus norvegicus) (UniProt P35439+Q00959+Q00960+Q00961+Q62645+Q8VHN2+Q9R1M7); test: Displacement of [3H]TCP from Wistar rat cerebral cortex NMDAR at 10 uM incubated for 1.5 hrs; type: tissue-based
[2] = target: T1, 5-hydroxytryptamine receptor 1A (Homo sapiens) (UniProt P08908); test: Displacement of [3H]8-OH-DPAT from recombinant human 5-HT1A receptor expressed in CHO-K1 cells at 0.3 to 3 uM incubated for 1 hr; type: cell-based; details: dose 0.3-3 µM
T1 sequence (whole entry): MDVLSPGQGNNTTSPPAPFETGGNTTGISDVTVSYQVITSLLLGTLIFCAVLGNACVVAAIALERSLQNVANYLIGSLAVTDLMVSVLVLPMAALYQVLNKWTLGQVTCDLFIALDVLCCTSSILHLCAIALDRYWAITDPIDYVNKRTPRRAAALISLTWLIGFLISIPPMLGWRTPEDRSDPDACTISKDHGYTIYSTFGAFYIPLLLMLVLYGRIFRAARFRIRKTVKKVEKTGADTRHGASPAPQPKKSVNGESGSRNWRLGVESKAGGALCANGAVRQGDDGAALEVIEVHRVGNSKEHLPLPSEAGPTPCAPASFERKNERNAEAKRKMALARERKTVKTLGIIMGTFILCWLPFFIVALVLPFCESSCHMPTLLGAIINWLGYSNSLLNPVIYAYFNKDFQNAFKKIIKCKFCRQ

[3] = target: Ionotropic glutamate receptor NMDA 1/2C (Homo sapiens) (UniProt Q05586+Q14957); test: Antagonist activity at GluN1/GluN2C receptor (unknown origin) overexpressed in CHO cells assessed as inhibition of Ca2+ flux incubated for 24 hrs in presence of glycine/L-glutamate by FLIPR assay; type: cell-based
[4] = target: Glutamate NMDA receptor; GRIN1/GRIN2B (Homo sapiens) (UniProt Q05586+Q13224); test: Antagonist activity at GluN1/GluN2B receptor (unknown origin) overexpressed in CHO cells assessed as inhibition of Ca2+ flux incubated for 24 hrs in presence of glycine/L-glutamate by FLIPR assay; type: cell-based
[5] = target: Ionotropic glutamate receptor NMDA 1/2D (Homo sapiens) (UniProt Q05586+O15399); test: Antagonist activity at GluN1/GluN2D receptor (unknown origin) overexpressed in CHO cells assessed as inhibition of Ca2+ flux incubated for 24 hrs in presence of glycine/L-glutamate by FLIPR assay; type: cell-based
[6] = Selectivity index, ratio of displacement of [3H]TCP from Wistar rat cerebral cortex NMDAR to displacement of [3H]diprenorphine from recombinant human mu opioid receptor expressed in CHO-K1 cells; type: cell-based
[7] = target: Sodium-dependent serotonin transporter (Homo sapiens) (UniProt P31645); test: Displacement of [3H]paroxetine from recombinant human SERT expressed in HEK293 cells at 10 uM incubated for 1 hr; type: cell-based
[8] = target: Glutamate NMDA receptor; GRIN1/GRIN2A (Homo sapiens) (UniProt Q05586+Q12879); test: Antagonist activity at GluN1/GluN2A receptor (unknown origin) overexpressed in CHO cells assessed as inhibition of Ca2+ flux incubated for 24 hrs in presence of glycine/L-glutamate by FLIPR assay; type: cell-based
[9] = target: Sodium-dependent serotonin transporter (Homo sapiens) (UniProt P31645); test: Displacement of [3H]paroxetine from recombinant human SERT expressed in HEK293 cells at 1 to 10 uM incubated for 1 hr; type: cell-based; details: dose 1-10 µM
[10] = target: Histamine H1 receptor (Homo sapiens) (UniProt P35367); test: Displacement of [3H]pyrilamine from recombinant human histamine H1 receptor expressed in CHO-K1 cells at 10 to 30 uM incubated for 3 hrs; type: cell-based; details: dose 10-30 µM
[11] = target: Sigma non-opioid intracellular receptor 1 (Homo sapiens) (UniProt Q99720); test: Displacement of [3H]pentazocine from sigma 1 receptor in human Jurkat cells at 0.3 to 3 uM incubated for 2 hrs; type: cell-based; details: dose 0.3-3 µM
Sigma non-opioid intracellular receptor 1 (Homo sapiens), sequence (Q99720 whole entry): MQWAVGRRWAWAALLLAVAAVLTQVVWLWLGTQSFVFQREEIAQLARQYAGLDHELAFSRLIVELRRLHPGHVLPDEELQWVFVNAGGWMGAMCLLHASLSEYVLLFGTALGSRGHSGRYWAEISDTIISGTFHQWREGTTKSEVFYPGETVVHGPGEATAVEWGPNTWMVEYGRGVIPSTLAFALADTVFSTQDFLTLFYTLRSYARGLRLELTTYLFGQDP

Sodium-dependent serotonin transporter (Homo sapiens), sequence (P31645 whole entry, looked up): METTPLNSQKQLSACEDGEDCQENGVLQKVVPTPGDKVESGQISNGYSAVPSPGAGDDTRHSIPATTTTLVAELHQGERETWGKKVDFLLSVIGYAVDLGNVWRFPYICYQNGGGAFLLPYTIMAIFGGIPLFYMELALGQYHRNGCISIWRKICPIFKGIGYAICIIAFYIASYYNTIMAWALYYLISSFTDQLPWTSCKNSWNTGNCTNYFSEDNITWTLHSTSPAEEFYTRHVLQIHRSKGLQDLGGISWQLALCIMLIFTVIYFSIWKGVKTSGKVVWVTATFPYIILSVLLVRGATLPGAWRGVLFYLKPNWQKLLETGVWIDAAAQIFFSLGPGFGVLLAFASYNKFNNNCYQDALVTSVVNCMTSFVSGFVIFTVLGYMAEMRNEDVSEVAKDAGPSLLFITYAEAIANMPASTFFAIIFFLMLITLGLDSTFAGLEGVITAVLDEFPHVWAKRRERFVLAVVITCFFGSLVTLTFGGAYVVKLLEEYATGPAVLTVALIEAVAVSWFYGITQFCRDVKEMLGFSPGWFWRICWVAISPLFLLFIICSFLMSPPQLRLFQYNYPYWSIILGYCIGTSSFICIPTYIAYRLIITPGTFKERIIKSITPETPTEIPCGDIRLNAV
Histamine H1 receptor (Homo sapiens), sequence (P35367 whole entry): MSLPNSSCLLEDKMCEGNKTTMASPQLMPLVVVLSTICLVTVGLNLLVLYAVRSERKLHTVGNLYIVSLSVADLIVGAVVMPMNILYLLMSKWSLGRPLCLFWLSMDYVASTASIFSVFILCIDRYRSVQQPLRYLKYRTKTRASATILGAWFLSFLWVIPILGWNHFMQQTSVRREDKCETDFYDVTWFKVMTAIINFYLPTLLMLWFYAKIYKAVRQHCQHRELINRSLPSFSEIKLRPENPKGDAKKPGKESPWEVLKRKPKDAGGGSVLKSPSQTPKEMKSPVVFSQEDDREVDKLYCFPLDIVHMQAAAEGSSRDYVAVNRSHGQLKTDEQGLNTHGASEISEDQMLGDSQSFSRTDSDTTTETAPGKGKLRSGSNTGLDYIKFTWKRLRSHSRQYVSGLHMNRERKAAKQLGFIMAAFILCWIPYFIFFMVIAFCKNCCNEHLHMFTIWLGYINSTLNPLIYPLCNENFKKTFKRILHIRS

SMILES	Activity ([1]; filed as antagonist)	Activity [2]	inhibition [3]	inhibition [4]	inhibition [5]	inhibition [8]	also measured
CCC(=O)C(C[C@H](C)N(C)C)(c1ccccc1)c1ccccc1	Active	Active	–	–	–	–	–
CC[C@@H](O)C(C[C@H](C)N(C)C)(c1ccccc1)c1ccccc1	–	–	inactive	inactive	inactive	–	–
CC[C@@H](O)C(C[C@@H](C)NC)(c1ccccc1)c1ccccc1	Active	inactive	–	–	–	–	Ratio pKi [6]: 0.83; Activity [7]: Active
C[C@@H]1CC(c2ccccc2)(c2ccccc2)C(=O)N1C	–	–	inactive	inactive	inactive	inactive	–
CC[C@H](O)C(C[C@@H](C)N)(c1ccccc1)c1ccccc1	Active	inactive	–	–	–	–	–
CC[C@H](O)C(C[C@@H](C)NC)(c1ccccc1)c1ccccc1	Active	inactive	–	–	–	–	Ratio pKi [6]: 0.98; Activity [7]: Active
CCC1=[N+](C)[C@H](C)CC1(c1ccccc1)c1ccccc1	–	–	–	inactive	–	inactive	–
CC[C@@H](O)C(C[C@H](C)N)(c1ccccc1)c1ccccc1	Active; Compound Activity Comparable To (S)-Methadone	inactive	–	–	–	–	Activity [9]: Active
C[C@H](CC(C(=O)O)(c1ccccc1)c1ccccc1)N(C)C	–	–	inactive	inactive	inactive	inactive	–
CC[C@H](O)C(C[C@H](C)NC)(c1ccccc1)c1ccccc1	Active; Compound Activity Comparable To (S)-Methadone	inactive	–	–	–	–	Activity [10]: Active; Compound Displayed Significant Activity Like (S)-Methadone; Activity [11]: Active
CC[C@H](O)C(C[C@@H](C)N(C)C)(c1ccccc1)c1ccccc1	–	–	–	inactive	–	–	–
C[C@@H](CC(C(=O)O)(c1ccccc1)c1ccccc1)N(C)C	–	–	inactive	inactive	inactive	inactive	–
CCC1=[N+](C)[C@@H](C)CC1(c1ccccc1)c1ccccc1	–	–	inactive	inactive	inactive	inactive	–
CCC1=N[C@H](C)CC1(c1ccccc1)c1ccccc1	–	inactive	–	–	–	–	Activity [1]: inactive
CC[C@H](O)C(C[C@H](C)N)(c1ccccc1)c1ccccc1	Active	inactive	–	–	–	–	Activity [9]: Active
C[C@H]1CC(c2ccccc2)(c2ccccc2)C(=O)N1C	–	–	inactive	inactive	inactive	inactive	–

Source: ChEMBL document CHEMBL6115009
